In patent US20170105999A1, “METHOD FOR TREATING DRUG RESISTANT CANCER” (NATIONAL YANG MING UNIVERSITY, priority 2014, published 2017):

Assays:
A549 cells = assay: Senescence, β-galactosidase (SA-β-Gal) activity; assay type: cell-based; conditions: A549, 24 hours; 1 μM prochlorperazine, 50 μM resveratrol as positive control
Source text: EMT also plays a critical role in the regulation of cancer sternness. EMT is characterized by enhanced cell migration and invasion.

CL141 [1] = assay: Clonogenic assay; assay type: cell-based; conditions: CL141; approximately 1,000 cells seeded, 14 days
Source text: […] […] After the treatments, cells were washed with PBS, and the colonies were fixed with fix solution (methanol: acetic acid=3:1) and stained with 0.5% crystal violet in methanol. After removing the crystal violet carefully and rinse with tap water, the colonies were counted manually.

CL141 [2] = assay: Cytotoxicity, sulforhodamine B (SRB) assay; assay type: cell-based; conditions: read-out: IC50 for prochlorperazine metabolites, CL141 parental cells
Experimental: (§1) Cells were plated in 96-well plates at a density of 2000 cells per well in triplicate. The cells were treated on the third day (to ensure proper plating efficiency and vitality) to indicated agents for 48 hrs. […] Cytotoxicity was assessed using the sulforhodamine B (SRB) assay (23). Briefly, the medium was discarded, and the adherent cells were fixed by 100 μl of cold 10% trichioroacetic acid (w/v) in each well for 1 h at 4° C. After fixation, cells were stained with 100 μl/well of 0.4% (w/v, in 1% acetic acid) SRB solution for 30 min at room temperature, and then washed 5 times with 1% acetic acid. After air-drying, 100 μl of 10 mM Tris base was added to each well and the absorbance was read at 530 nm. Cytotoxicity is expressed as the percent of cells in drug treated wells relative to number of cells in the solvent only control (set to 100%). Each experiment was performed independently at least 2 times in triplicate and cytotoxicity is given as means ±SD.
(§2) A549, A549-ON, CL97, CL141, HCC827, and H441 were lung adenocarcinoma cell lines. CL152, H2170, and H226 were squamous cell carcinoma cell lines. Cell viability was determined by SRB assay. […] To determine whether side population (SP) cells, which represent a cell population with CSC characteristics, exist in NSCLC cell lines, we stained the cells with the fluorescent dye, Hoechst 33342, and analyzed the cells with flow cytometry.

CL152 = assay: Cytotoxicity, sulforhodamine B (SRB) assay; assay type: cell-based; conditions: read-out: IC50 for prochlorperazine metabolites, CL152 parental cells
Experimental: as §1, §2

CL141 spheres = assay: Cytotoxicity at sphere cells, Trypan Blue Exclusion method; assay type: cell-based; conditions: read-out: IC50 for prochlorperazine metabolites
CL152 spheres = assay: as above; assay type: cell-based; conditions: read-out: IC50 for prochlorperazine metabolites
NSCLC cell lines = system: NSCLC cell lines
Experimental: as §1, §2

[3] = system: NCI-H441 cells expressing firefly luciferase; assay: NCI-H441 firefly luciferase tail vein tumor model, drug combination test; assay type: in vivo, mice; conditions: cisplatin 1 mg/kg + pemetrexed 1 mg/kg
Experimental: In the first drug combination test, NCI-H441 cells expressing firefly luciferase (6×10^5 cells/injection) were injected into NOD/SCID mice (4-6 week of age) via the lateral tail vein for tumor establishment. […] Tumor burden from different groups were recorded by caliper. The change in tumor size was expressed as in fold change and plotted over time. Subsequently, we performed another set of drug combination test. […] For lung adenocarcinoma, the standard drug combination is pemetrexed and cisplatin whereas are used gemcitabine and cisplatin for lung squamous carcinoma. […] CL97 cancer cells (1.5×10^6 cells per injection) were injected subcutaneously into NOD/SCID mice to establish in viva tumor model.
In the drug combination test ([…]), NCI-H441 cells expressing firefly luciferase ([…] cells/injection) were injected into NOD/SCID mice (4-6 week of age) via the lateral tail vein for tumor establishment.

| Structure (SMILES) | Clonogenic assay for prochlorperazine analogs (CL141 [1]) | IC50 (CL141 [2]) [µM] | IC50 (CL152) [µM] | IC50 (CL141 spheres) [µM] | IC50 (CL152 spheres) [µM] | also measured |
| --- | --- | --- | --- | --- | --- | --- |
| Oc1ccc(C=Cc2cc(O)cc(O)c2)cc1 [resveratrol] | – | – | – | – | – | β-galactosidase activity (senescence) (A549 cells): increased β-galactosidase activity |
| CN(C)c1ccc(-c2c3ccccc3nc3ccc(Cl)cc23)cc1 [NSC 406619] | 2.5-5 μM | – | – | – | – | – |
| Clc1ccc2c(c1)N(CCCN1CCNCC1)c1ccccc1S2 [N-desmethyl prochlorperazine] | – | 5 to 10 | ~10 | < 5 | < 5 | cytotoxic effect in NSCLC cell lines compared with other metabolites (NSCLC cell lines): better cytotoxic effect than other tested metabolites |
| CCc1ccc2c(c1)N(CCCN(CCCl)CCCl)c1ccccc1S2 [NSC 166184] | 1-2.5 μM | – | – | – | – | – |
| CCN(CC)CCCN1c2ccccc2Sc2ccc(Cl)cc21 [NSC 169470] | 5-10 μM | – | – | – | – | – |
| N.N.[Cl][Pt][Cl] [cisplatin] | – | – | – | – | – | inhibitory effect on tumor growth, cisplatin in combination with pemetrexed vs pemetrexed alone [3]: not significantly different |
| CN1CCN(CCCN2c3ccccc3[S+]([O-])c3ccc(Cl)cc32)CC1 (stereo not shown) [Prochlorperazine sulfoxide] | – | > 20 | > 20 | 5 to 10 | > 10 | – |
| CC1(C)CCCN1CCCN1c2ccccc2Sc2ccc(Cl)cc21 [NSC 14948] | 5-10 μM | – | – | – | – | – |
| C[N+]1([O-])CCN(CCCN2c3ccccc3[S+]([O-])c3ccc(Cl)cc32)CC1 (stereo not shown) [Prochlorperazine sulfoxide 4′-N-oxide] | – | > 20 | > 20 | > 10 | > 10 | – |
